From patent publication US12268657B2, “Coenzyme Q10 composition, and preparation method and application thereof in cardio-protection” (Guangdong Runhe Biotechnology Co., Ltd, priority 2023, dated 2025)

System: myocardial ischemia rat models
Test: Protective effect on myocardial ischemia in rat model (coronary artery clamping)
Format: in vivo
Settings: SD rats, 0.2 mg/kg per day for one week
Experimental: Specifically, several SD rats weighing about 200 g were selected to prepare myocardial ischemia rat models by a coronary artery clamping method. The successful-established model rats were uniformly divided into a blank group, a control group, and a treatment group, with 8 rats in each group. The blank group was not treated with any drug during the observation period, the control group was administered with 0.2 mg/kg of coenzyme Q10 per day for one week, and the treatment group was administered with 0.2 mg/kg of the coenzyme Q10 slow-release drug per day for one week. After the one-week administration, the myocardial infarction area, and superoxide dismutase (SOD) and malondialdehyde (MDA) content in the serum of the rats after artery ligation were recorded, and the results were shown in the table below. […] Moreover, after treatment with the slow-release drug, the activity of SOD was improved, and the generation of MDA was inhibited, which was favorable to reducing the occurrence of infarction.

COC1=C(OC)C(=O)C(C/C=C(\C)CC/C=C(\C)CC/C=C(\C)CC/C=C(\C)CC/C=C(\C)CC/C=C(\C)CC/C=C(\C)CC/C=C(\C)CC/C=C(\C)CCC=C(C)C)=C(C)C1=O [coenzyme Q10, Coenzyme Q10]
Myocardial infarction area (%): 14.69 ± 1.14% | MDA (serum): 6.57 ± 0.68 nmol/mL | SOD (NU/mL) (serum): 220.34 ± 8.56 NU/mL
